Experimental data as given in US20260191838A1, “COMBINATIONS COMPRISING A MENIN-MLL INHIBITOR AND A BCL-2 INHIBITOR” (JANSSEN PHARMACEUTICA NV, priority 2022, published 2026).

How the values were obtained:
Menin/MLL = target: T1, Menin/MLL (Homo sapiens, UniProt O00255, T541A); assay: Menin/MLL homogenous time-resolved fluorescence (HTRF) assay; type: binding; settings: 30 min incubation of test compound with terbium chelate-labeled menin
T1 construct: Menin (a.a 1-610-6×his tag, 2.3 mg/mL in 20 mM Hepes)
T1 sequence (O00255 with tags, fused parts or gaps T541A): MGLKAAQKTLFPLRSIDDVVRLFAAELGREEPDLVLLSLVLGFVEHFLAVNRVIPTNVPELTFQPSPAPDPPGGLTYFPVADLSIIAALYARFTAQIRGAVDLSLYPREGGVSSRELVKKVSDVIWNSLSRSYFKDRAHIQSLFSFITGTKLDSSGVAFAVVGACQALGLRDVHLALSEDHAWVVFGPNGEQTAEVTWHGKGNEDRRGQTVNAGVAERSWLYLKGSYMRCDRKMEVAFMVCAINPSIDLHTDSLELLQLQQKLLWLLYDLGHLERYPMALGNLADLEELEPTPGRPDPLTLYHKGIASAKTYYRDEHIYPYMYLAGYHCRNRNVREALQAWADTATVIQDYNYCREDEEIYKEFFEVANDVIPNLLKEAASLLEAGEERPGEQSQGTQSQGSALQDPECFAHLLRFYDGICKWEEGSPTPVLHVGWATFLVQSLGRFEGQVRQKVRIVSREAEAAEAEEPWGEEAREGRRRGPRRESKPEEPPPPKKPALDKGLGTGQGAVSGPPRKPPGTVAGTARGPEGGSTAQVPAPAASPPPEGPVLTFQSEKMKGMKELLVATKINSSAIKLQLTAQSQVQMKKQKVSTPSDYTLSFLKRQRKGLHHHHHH
Experimental: 1) Menin/MLL Homogenous Time-Resolved Fluorescence (HTRF) Assay
To an untreated, white 384-well microtiter plate was added 40 nL 200× test compound in DMSO and 4 μL 2× terbium chelate-labeled menin (vide infra for preparation) in assay buffer (40 mM Tris.HCl, pH 7.5, 50 mM NaCl, 1 mM DTT (dithiothreitol) and 0.05% Pluronic F-127). After incubation of test compound and terbium chelate-labeled menin for 30 min at ambient temperature, 4 μL 2×FITC-MBM1 peptide (FITC-β-alanine-[…]-NH2) (“FITC” means fluorescein isothiocyanate) in assay buffer was added, the microtiter plate centrifuged at 1000 rpm for 1 min and the assay mixtures incubated for 15 min at ambient temperature. The relative amount of menin-FITC-MBM1 complex present in an assay mixture is determined by measuring the homogenous time-resolved fluorescence (HTRF) of the terbium/FITC donor/acceptor fluorphore pair using an EnVision microplate reader (ex. 337 nm/terbium em. 490 nm/FITC em. 520 nm) at ambient temperature. The degree of fluorescence resonance energy transfer (the HTRF value) is expressed as the ratio of the fluorescence emission intensities of the FITC and terbium fluorophores (F^em 520 nm/F^em 490 nm). […]
Compound potencies were determined by first calculating % inhibition at each compound concentration according to equation 1: […]

[1] = system: MOLM-13 tumors in NSG mice; assay: Efficacy (survival) in disseminated MOLM-13 (KMT2A-rearranged) IV model in NSG mice; type: in vivo; settings: NSG mice with established MOLM-13 tumors, 4 weeks treatment; azacitidine 2 mg/kg ip QD × 7, venetoclax 100 mg/kg po QD × 28, Compound 51 2 mg/kg po QD × 28 (Table 6)
Experimental: 4) Efficacy of Menin-KMT2A Inhibitor in Combination with Venetoclax, and Optionally, Azacitidine, in MOLM-13 (KMT2A-Rearranged) IV Model in NSG Mice
Compound 51 was formulated in purified pyrogen-free deionized water, pH 4.0 and prepared to reach a total volume of 8 mL/kg. Doses were adjusted by individual body weight each day. Working stocks of Compound 51 were prepared once per week for each study and stored at 25° C.
Female NSG (NOD.Cg-Prkdc^scid Il2rg^tm1Wj1/SzJ) mice were used when they were approximately 6 to 8 weeks of age and weighed approximately 25 g. All animals could acclimate and recover from any shipping-related stress for a minimum of 7 days prior to experimental use. Autoclaved water and irradiated food were provided ad libitum, and the animals were maintained on a 12 hour light and dark cycle. Cages, bedding, and water bottles were autoclaved before use and changed weekly. The tissue culture and cell injection reagents are summarized below in Table 5.
Tumor Model and Cell Culture Method
Human AML MOLM-13 cells were cultured at 37° C., 5% CO2 in the indicated complete culture media (RPMI 1640+10% HI-FBS+2 mM L-glutamine+50 μg/ml Gentamycin). Cells were harvested while in logarithmic growth and resuspended in cold (4° C.) Roswell Park Memorial Institute (RPMI) 1640 in serum-free medium.
For the disseminated MOLM-13 model, each mouse received 1×10^5 cells via IV injection in a total volume of 0.2 mL using a 26-gauge needle.
Day 0 is the day of tumor cell implantation and study initiation.
Mice bearing IV MOLM-13 xenograft tumors were randomly assigned to treatment groups 5 days post-tumor cell engraftment.
Animals were monitored daily for clinical signs related to either compound toxicity or tumor burden (i.e., hind limb paralysis, lethargy, etc.).
For survival assessment, results were plotted as the percentage survival against days post tumor implant. Negative clinical signs and/or ≥20% body weight loss was used as a surrogate endpoint for death. Median survival was determined utilizing Kaplan-Meier survival analysis. The percent increased life span (ILS) was calculated as: ((median survival day of treated group−median survival day of control group)/median survival day of control group)×100. Animals failing to reach the surrogate endpoint due to adverse clinical signs or death unrelated to treatment were censored for the survival assessment. As defined by NCI criteria, ≅25% ILS is considered biologically significant. (Johnson J I et al. Br J Cancer. 2001. 84(10), 1424-1431).
Survival and body weight data were graphically represented utilizing Prism (Version 9). Statistical significance for body weights was evaluated as described above. Statistical significance was evaluated for Kaplan-Meier survival plots comparing therapeutic treatment group vs. appropriate vehicle-treated control using log-rank (Mantel-Cox) test in R software version 3.4.2. Differences between groups were considered significant when the p value was ≤0.05.
The disseminated MOLM-13 model described above was used to examine the efficacy of menin-KMT2A-inhibitor (formulated as described above) in combination with venetoclax (formulated in polyethylene glycol [PEG]-400/Phosal50/dimethyl sulfoxide [DMSO]), and optionally azacitidine (formulated in 0.9% saline). Treatment with compound(s) was initiated 5 days after cell injection. Compound 51 was given in the morning, and venetoclax or azacitidine was given in the afternoon, approximately 6-8 hr apart.

MOLM14 cells = assay: Proliferation (spheroid) assay, MOLM14; type: cell-based; settings: Homo sapiens, MOLM-14, 192 h, 8 days; read-out: spheroid assay_MOLM14 IC50
Experimental: The anti-proliferative effect of menin/MLL protein/protein interaction inhibitor test compounds was assessed in human leukemia cell lines. The cell line MOLM14 harbors a MLL translocation and expresses the MLL fusion protein MLL-AF9, respectively, as well as the wildtype protein from the second allele. OCI-AML3 cells that carry the NPM1c gene mutation were also tested. […] KO-52 was used as a control cell line containing two MLL (KMT2A) wildtype alleles in order to exclude compounds that display general cytotoxic effects.
MOLM14 cells were cultured in RPMI-1640 (Sigma Aldrich) supplemented with 10% heat-inactivated fetal bovine serum (HyClone), 2 mM L-glutamine (Sigma Aldrich) and 50 μg/ml gentamycin (Gibco). KO-52 and OCI-AML3 cell lines were propagated in alpha-MEM (Sigma Aldrich) supplemented with 20% heat-inactivated fetal bovine serum (HyClone), 2 mM L-glutamine (Sigma Aldrich) and 50 μg/ml gentamycin (Gibco).
In order to assess the anti-proliferative effects, 200 MOLM14 cells, […] or 300 KO-52 cells were seeded in 200 μl media per well in 96-well round bottom, ultra-low attachment plates (Costar, catalogue number 7007). Cell seeding numbers were chosen based on growth curves to ensure linear growth throughout the experiment. Test compounds were added at different concentrations and the DMSO content was normalized to 0.3%. Cells were incubated for 8 days at 37° C. and 5% CO2. Spheroid like growth was measured in real-time by live-cell imaging (IncuCyteZOOM, Essenbio, 4× objective) acquiring images at day 8. Confluence (%) as a measure of spheroid size was determined using an integrated analysis tool.
In order to determine the effect of the test compounds over time, the confluence in each well as a measure of spheroid size, was calculated. Confluence of the highest dose of a reference compound was used as baseline for the LC (Low control) and the confluence of DMSO treated cells was used as 0% cytotoxicity (High Control, HC).
Absolute IC50 values were calculated as percent change in confluence as follows: • LC=Low Control: cells treated with e.g. 1 μM of the cytotoxic agent staurosporin, or e.g. cells treated with a high concentration of an alternative reference compound • HC═High Control: Mean confluence (%) (DMSO treated cells) • % Effect=100−(100*(Sample-LC)/(HC-LC))
GraphPad Prism (version 7.00) was used to calculate the ICso. Dose-response equation was used for the plot of % Effect vs Log10 compound concentration with a variable slope and fixing the maximum to 100% and the minimum to 0%.

MEIS1 mRNA = MEIS1 mRNA expression assay (Quantigene Singleplex) in MOLM14 cells; type: cell-based; settings: Homo sapiens, MOLM-14, 48 h
Experimental: 2b) MEIS1 mRNA Expression Assay
MEIS1 mRNA expression upon treatment of compound was examined by Quantigene Singleplex assay (Thermo Fisher Scientific). This technology allows for direct quantification of mRNA targets using probes hybridizing to defined target sequences of interest and the signal is detected using a Multimode plate reader Envision (PerkinElmer). The MOLM14 cell line was used for this experiment. Cells were plated in 96-well plates at 3,750 cells/well in the presence of increasing concentrations of compounds. After incubation of 48 hours with compounds, cells were lysed in lysis buffer and incubated for 45 minutes at 55° C. Cell lysates were mixed with human MEIS1 specific capture probe or human RPL28 (Ribosomal Protein L28) specific probe as a normalization control, as well as blocking probes. Cell lysates were then transferred to the custom assay hybridization plate (Thermo Fisher Scientific) and incubated for 18 to 22 hours at 55° C. Subsequently, plates were washed to remove unbound materials followed by sequential addition of preamplifiers, amplifiers, and label probe. Signals (=gene counts) were measured with a Multimode plate reader Envision. IC50s were calculated by dose-response modelling using appropriate software. For all non-housekeeper genes response equal counts corrected for background and relative expression. For each sample, each test gene signal (background subtracted) was divided by the normalization gene signal (RPL28: background subtracted). Fold changes were calculated by dividing the normalized values for the treated samples by the normalized values for the DMSO treated sample. Fold changes of each target gene were used for the calculation of IC50s.

Compound | IC50 (Menin/MLL) [nM] | % ILS (increased life span) [1] [%] | IC50 (MOLM14 cells) [nM] | IC50 (MEIS1 mRNA) [nM]
Cc1cncc2c1c(CC1CN(CC3CCNC(=O)C3)C1)cn2-c1ccc(F)cc1C(=O)N(C)C(C)C (stereo not shown) [Compound 196] | 0.19 |  |  | 
Nc1ncn([C@@H]2O[C@H](CO)[C@@H](O)[C@H]2O)c(=O)n1 [Azacitidine, azacitidine, reference compound] |  | 37 |  | 
COCC(=O)N1CCC(C(C)N2CCC(Cc3cn(-c4ccc(F)cc4C(=O)N(C)C(C)C)c4cncc(C)c34)C2)CC1 (single isomer, unassigned) [Compound 117a] |  |  | 5 | 7
CC(=O)N1CC2CC(N3CC(Cc4cn(-c5ccc(F)cc5C(=O)N(C)C(C)C)c5cncc(C)c45)C3)CC2C1 (stereo not shown) [Compound 294a] | 0.237 |  |  | 
CNC(=O)N1CCC(CN2CC[C@H](Cc3cn(-c4ccc(F)cc4C(=O)N(C)C(C)C)c4cncc(C)c34)C2)CC1 (single isomer, unassigned) [Compound 101] |  |  | 41 | 7
CC1(C)CCC(CN2CCN(c3ccc(C(=O)NS(=O)(=O)c4ccc(NCC5CCOCC5)c([N+](=O)[O-])c4)c(Oc4cnc5[nH]ccc5c4)c3)CC2)=C(c2ccc(Cl)cc2)C1 [Venetoclax, venetoclax, reference compound] |  | 11 |  | 
CC(=O)N1CCC(N2CC[C@H](Cc3cn(-c4ccc(F)cc4C(=O)N(C)C(C)C)c4cncc(C)c34)C2)CC1 [Compound 156] |  |  | 42 | 187
